The supplement of paper PMC4977894
Structures can show the parent of a compound that is named as a salt. ± gives the standard deviation of the averaged measurements.

Legend:
[1] = test system: Homo sapiens (human subject panel, olfactory perception); assay: perceived odor intensity rating (rating 0-100); higher = stronger perceived smell
How it was run: (§1)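 For each molecule, 1 mL diluted in paraffin oil was sniffed at high and low concentrations by 55 healthy human subjects aged 18–50, with the six lowest performers excluded. Presentation order was randomized over ten visits of 100 stimuli. Subjects who reported smelling a stimulus moved a computerized slider from its starting position of 50, and positions were converted to a 0–100 scale. The familiarity, intensity and pleasantness ratings are averaged across subjects.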

[2] = test system: Homo sapiens (human subject panel, olfactory perception); assay: perceived odor familiarity rating (rating 0-100); higher = more familiar
How it was run: as §1

[3] = test system: Homo sapiens (human subject panel, olfactory perception); assay: perceived odor pleasantness rating (rating 0-100); higher = more pleasant
How it was run: as §1

[4] = odor dilution in paraffin oil: 1/10
[5] = odor dilution in paraffin oil: 1/1,000
[6] = odor dilution in paraffin oil: 1/100,000
[7] = odor dilution in paraffin oil: 1/10,000,000

| SMILES | perceived odor intensity rating [1, 4] | perceived odor intensity rating [1, 5] | perceived odor familiarity rating [2, 4] | perceived odor familiarity rating [2, 5] | perceived odor pleasantness rating [3, 4] | perceived odor pleasantness rating [3, 5] | perceived odor intensity rating [1, 6] | perceived odor familiarity rating [2, 6] | perceived odor pleasantness rating [3, 6] | perceived odor intensity rating [1, 7] | perceived odor familiarity rating [2, 7] | perceived odor pleasantness rating [3, 7] |
| --- | --- | --- | --- | --- | --- | --- | --- | --- | --- | --- | --- | --- |
| CCOC=O [Ethyl formate] | 51.6 ± 35 | 16.5 ± 26 | 43.9 ± 32 | 24.9 ± 20 | 36 ± 26 | 48.2 ± 22 | – | – | – | – | – | – |
| CCCCCC/C=C/C(C)=O [3-Decen-2-one] | – | 65.4 ± 25 | – | 42.5 ± 28 | – | 33.9 ± 22 | 21.6 ± 23 | 27.1 ± 21 | 46.8 ± 18 | – | – | – |
| CC=C(C=O)c1ccccc1 [2-Phenyl-2-butenal] | – | – | – | – | – | – | 19.8 ± 24 | 30.9 ± 30 | 36.6 ± 25 | 20.1 ± 29 | 34.5 ± 24 | 57.5 ± 21 |
| CCC(=O)O [propionic acid (replicate)] | – | – | – | – | – | – | 38.6 ± 32 | 37.3 ± 30 | 38.7 ± 20 | 7.72 ± 8.4 | 44.1 ± 30 | 36.7 ± 25 |
| O=Cc1ccc(O)cc1 [4-Hydroxybenzaldehyde] | 51.6 ± 29 | 37.6 ± 27 | 39.5 ± 25 | 39.1 ± 31 | 49.2 ± 24 | 51.8 ± 23 | – | – | – | – | – | – |
| CCC1OC(=O)C(O)=C1C (stereo not drawn) [5-Ethyl-3-hydroxy-4-methyl-2(5H)-furanone] | – | – | – | – | – | – | 36.6 ± 31 | 44.9 ± 29 | 54.4 ± 22 | 48.1 ± 32 | 59.7 ± 34 | 64 ± 22 |
| c1ccc(-c2ccccc2)cc1 [Biphenyl] | 77.6 ± 20 | 31.7 ± 26 | 42.5 ± 33 | 36.2 ± 28 | 31.3 ± 24 | 51.4 ± 21 | – | – | – | – | – | – |
| C/C=C/c1ccc(OC)cc1 [trans-Anethole] | – | 64.3 ± 28 | – | 74 ± 26 | – | 62.1 ± 26 | 30.8 ± 30 | 40 ± 32 | 51.3 ± 23 | – | – | – |
| CCCCCO [pentanol] | – | 68.4 ± 28 | – | 46 ± 30 | – | 23.9 ± 23 | 31.2 ± 32 | 36.6 ± 28 | 41.9 ± 26 | – | – | – |
| CC(=O)O [acetic acid] | – | – | – | – | – | – | 21.2 ± 25 | 42 ± 32 | 47.8 ± 24 | 11.8 ± 16 | 35.5 ± 32 | 46.1 ± 18 |
| Cc1cnc(C)cn1 [2,5-dimethyl pyrazine] | – | – | – | – | – | – | 50.3 ± 30 | 43.8 ± 30 | 38.5 ± 21 | 29.3 ± 31 | 37.1 ± 28 | 48.4 ± 24 |
| CCc1nccnc1CC [2,3-Diethylpyrazine] | – | – | – | – | – | – | 70.7 ± 26 | 55 ± 28 | 34.3 ± 24 | 30.4 ± 29 | 44.9 ± 28 | 40.3 ± 18 |
| CC(=O)CC/C=C(\C)CCC=C(C)C [6,10-Dimethyl-5,9-undecadien-2-one] | – | 42.1 ± 30 | – | 43.6 ± 26 | – | 41.8 ± 23 | 13 ± 12 | 40.3 ± 30 | 53 ± 21 | – | – | – |
| CCOC(=O)c1ccccc1 [Ethyl benzoate] | – | 66.2 ± 24 | – | 50.5 ± 32 | – | 57.1 ± 25 | 38.4 ± 33 | 43.1 ± 30 | 58.6 ± 24 | – | – | – |
| C/C=C/C=C/CO [trans,trans-2,4-Hexadien-1-ol] | – | 45.5 ± 30 | – | 45.1 ± 32 | – | 48 ± 23 | 14.4 ± 18 | 36.4 ± 30 | 49.6 ± 23 | – | – | – |
| CCCCCCCCCCCC(=O)OCCC(C)C [Isoamyl laurate] | 59.9 ± 29 | 20.3 ± 22 | 41.5 ± 29 | 31.8 ± 22 | 33.7 ± 25 | 47.7 ± 22 | – | – | – | – | – | – |
| NC(=O)CC[C@H](N)C(=O)O [L-Glutamine] | – | 29.1 ± 28 | – | 32.6 ± 26 | – | 51.7 ± 21 | 19 ± 27 | 35.8 ± 30 | 49.6 ± 27 | – | – | – |
| CCCC(=O)OCC [ethyl butyrate] | – | 77.8 ± 20 | – | 65.6 ± 29 | – | 61.1 ± 33 | 49.6 ± 32 | 53.5 ± 30 | 59.6 ± 26 | – | – | – |
| OCCc1ccccc1 [2-phenylethanol] | – | 70 ± 26 | – | 61.9 ± 30 | – | 52.8 ± 30 | 59.6 ± 29 | 61.8 ± 29 | 63.1 ± 24 | – | – | – |
| CC/C=C\CCOC(=O)c1ccccc1 [cis-3-Hexenyl benzoate] | – | 40.4 ± 31 | – | 36.3 ± 28 | – | 40.8 ± 19 | 28.1 ± 26 | 34 ± 23 | 51.2 ± 13 | – | – | – |
| O=C1CCCCC1 [Cyclohexanone (replicate)] | – | 66.5 ± 26 | – | 51.6 ± 30 | – | 46 ± 27 | 20.8 ± 29 | 28.4 ± 28 | 55.4 ± 24 | – | – | – |
| S=C=NCc1ccccc1 [Benzyl isothiocyanate] | – | 80.9 ± 20 | – | 40.9 ± 32 | – | 15.1 ± 19 | 55 ± 30 | 43.4 ± 26 | 29 ± 23 | – | – | – |
| c1ccccc1 [Benzene] | – | 11.2 ± 14 | – | 26.1 ± 24 | – | 51.7 ± 20 | 19.8 ± 26 | 27.4 ± 25 | 39.4 ± 22 | – | – | – |
| OC1CSC(O)CS1 (stereo not drawn) [2,5-Dihydroxy-1,4-dithiane] | 86.4 ± 16 | 88.4 ± 16 | 50.9 ± 35 | 51.5 ± 32 | 16.9 ± 25 | 13.8 ± 22 | – | – | – | – | – | – |
| CCCC(=O)O [butyric acid] | – | 86.8 ± 13 | – | 53.1 ± 31 | – | 21.1 ± 27 | 76.8 ± 23 | 50.2 ± 34 | 16 ± 18 | – | – | – |
| CCOC(=O)CC(=O)OCC [Diethyl malonate] | – | 57.1 ± 27 | – | 64.3 ± 24 | – | 71.7 ± 17 | 27.4 ± 26 | 42.8 ± 28 | 61 ± 23 | – | – | – |
| CCC(=O)CC [3-Pentanone] | – | 57.4 ± 35 | – | 53.3 ± 32 | – | 41.1 ± 26 | 33.3 ± 32 | 39.5 ± 29 | 45.4 ± 24 | – | – | – |
| O=CSCc1ccco1 [2-Furanmethanethiol formate] | – | – | – | – | – | – | 87.3 ± 14 | 54.5 ± 36 | 21.5 ± 23 | 86.9 ± 14 | 58.5 ± 35 | 24.3 ± 28 |
